Reference: publication PMC4738305, “Metabolism and Disposition of Aditoprim in Swine, Broilers, Carp and Rats” (Scientific Reports, 2016)

What was measured:
[1] = Tissue distribution and elimination of total radioactivity (total residues) after oral ^3H-ADP for 7 d; format: in vivo, broilers; design: Elimination kinetics Ke: unit not given here; settings: for Elimination kinetics Ke / Elimination kinetics t1/2 / Concentrations of total residues: broilers; for Elimination kinetics Ke / Elimination kinetics t1/2: 5 mg/kg b.w. 7 days
Experimental: (§1) (0.1 Ci/g) through oral gavage for 7 consecutive days. All the animals were housed on the basis of their group in the cages or aquaria throughout the whole study period. A group of animals was slaughtered through exsanguination under diethyl ether inhalation of anesthesia in the period of 6 h, 1, 3, 7, 14, and 21 d after the administration. The blood samples were immediately collected into the heparinized tubes and was centrifuged at 1920 × g at 4 °C for 10 min to obtain the plasma. The tissues from the heart, liver, spleen, lung, kidney, craw (broilers), stomach, intestine, fat, skin, muscle, thymus, pancreas, bile, bladder, hair (scale for carp), genital gland, adrenal glands, swim bladder (carp), brain, lymph, and bursa (broilers) were carefully excised and collected. The tissues were thoroughly rinsed with the deionized water to remove the residuary blood, blotted to dryness, and finally to perform the homogenization. In order to avoid cross-contamination the dissecting instruments were washed during the tissue procurements. The blank tissues were collected in order to provide control matrices. The total radioactivity levels in each sample were determined through LSC. The samples extracted from the plasma, bile, and tissues of the liver, kidney, muscle, and fat/skin were analyzed through LC/MS-IT-TOF and v. ARC radiometric detection for metabolite profiling.
(§2) Measurements of the total radioactivity in each sample were conducted by Packard Tri-Carb 2900 TR liquid scintillation counter (PerkinElmer Life and Analytical Sciences). The detection time was 10 min for two cycles. The scintillation counter data were automatically corrected for counting efficiency by instrument-stored quench curve which was drawn with a series of sealed quenched […] standards. The actual radioactivity of each sample was calculated by subtracting the background value form the mean radioactivity in two blank samples. All the samples were analyzed in duplicate if the sample size allowed this. If the results were differed by more than 10% from the mean value, the samples were reanalyzed. The samples with LSC counts less than 2-fold of the level of the running background were considered to contain insufficient radioactivity for reliable quantification.
(§3) Aliquots of liquid samples (urine, plasma, bile and raised water, 200 μL) were mixed with 10 mL of Ultima Gold^TM scintillation fluid for the direct analysis by LSC. Aliquots of solid samples (feces and tissues, 200 mg) were digested overnight with 2 mL tissue solubilizer at 50 °C in a shaking water bath, followed by adding 200 μL of 0.1 mol/L EDTA-Na and 200 μL of 30% H2O2, and was bathed at 50 °C for 2 h to bleach. The obtained transparent liquid were mixed with 10 mL of scintillation fluid and finally were counted by LSC. The digestion efficiency was determined by using the blank samples spiked with ^3 H standard for digestion, and the measured radioactivity content in the digested samples were adjusted by using the digestion efficiency values.
(§4) The concentrations of ADP and/or its metabolites were analyzed by using the following equation: C = L/(2.22 × 10^9 × RM), where C is the concentration of ADP or/and its metabolites (mg/kg), L is the LSC count (dpm), R is the specific activity of the administered dose (0.1 Ci/g), and M is the weight or volume of samples (kg or L). The results are expressed as mean ± SD. The elimination kinetics of terminal phase for ADP and its metabolites were conducted by using the WinNonlin linear regression program (Pharsight corporation, Statistical consultants, Inc., Kentucky, USA).

[2] = as above; format: in vivo, swine
Experimental: as §1, §2, §3, §4

[3H]c1c(Cc2cnc(N)nc2N)cc(OC)c(N(C)C)c1OC [^3H-ADP]
concentration of total radioactivity ([1]; broilers bile, within 6 h after oral ^3H-ADP for 7 d): 25.2 ± 8.5 mg/kg | Elimination kinetics Ke ([1]; Bile): 0.71 | Elimination kinetics t1/2 ([1]; Bile): 25.9 h | Elimination kinetics Ke ([1]; Blood): 0.31 | Elimination kinetics t1/2 ([1]; Blood): 54 h | Elimination kinetics Ke ([1]; Brain): 0.47 | Elimination kinetics t1/2 ([1]; Brain): 35.5 h | Elimination kinetics Ke ([1]; Bursa of Fabricius): 0.33 | Elimination kinetics t1/2 ([1]; Bursa of Fabricius): 50.6 h | Elimination kinetics Ke ([1]; Fat): 0.42 | Concentrations of total residues ([1]; Fat, time 0.25, 5 mg/kg b.w. 7 days): 0.78 ± 0.32 mg/kg | Concentrations of total residues ([1]; Fat, time 1, 5 mg/kg b.w. 7 days): 0.43 ± 0.05 mg/kg | Concentrations of total residues ([1]; Fat, time 3, 5 mg/kg b.w. 7 days): 0.24 ± 0.02 mg/kg | Concentrations of total residues ([1]; Fat, time 7, 5 mg/kg b.w. 7 days): 0.04 ± 0.01 mg/kg | Elimination kinetics Ke ([1]; Feathers): 0.28 | Elimination kinetics t1/2 ([1]; Feathers): 60 h | Concentrations of total residues ([1]; Feathers, time 0.25, 5 mg/kg b.w. 7 days): 0.85 ± 0.17 mg/kg | Concentrations of total residues ([1]; Feathers, time 1, 5 mg/kg b.w. 7 days): 0.53 ± 0.12 mg/kg | Concentrations of total residues ([1]; Feathers, time 3, 5 mg/kg b.w. 7 days): 0.27 ± 0.03 mg/kg | Concentrations of total residues ([1]; Feathers, time 7, 5 mg/kg b.w. 7 days): 0.10 ± 0.01 mg/kg | Elimination kinetics Ke ([1]; Glandular stomach): 0.59 | Elimination kinetics t1/2 ([1]; Glandular stomach): 28.1 h | Concentrations of total residues ([1]; Glandular stomach, time 1, 5 mg/kg b.w. 7 days): 1.54 ± 0.36 mg/kg | Concentrations of total residues ([1]; Glandular stomach, time 3, 5 mg/kg b.w. 7 days): 0.27 ± 0.05 mg/kg | Concentrations of total residues ([1]; Glandular stomach, time 7, 5 mg/kg b.w. 7 days): 0.04 ± 0.00 mg/kg | Elimination kinetics Ke ([1]; Heart): 0.29 | Elimination kinetics t1/2 ([1]; Heart): 57.8 h | Elimination kinetics Ke ([1]; Kidney): 0.30 | Elimination kinetics Ke ([1]; Large Intestine): 0.90 | Elimination kinetics t1/2 ([1]; Large Intestine): 18.5 h | Concentrations of total residues ([1]; Large Intestine, time 0.25, 5 mg/kg b.w. 7 days): 6.29 ± 1.45 mg/kg | Concentrations of total residues ([1]; Large Intestine, time 1, 5 mg/kg b.w. 7 days): 1.25 ± 0.23 mg/kg | Concentrations of total residues ([1]; Large Intestine, time 3, 5 mg/kg b.w. 7 days): 0.12 ± 0.03 mg/kg | Concentrations of total residues ([1]; Large Intestine, time 7, 5 mg/kg b.w. 7 days): 0.01 ± 0.00 mg/kg | Elimination kinetics Ke ([1]; Liver): 0.21 | Elimination kinetics Ke ([1]; Lung): 0.61 | Elimination kinetics t1/2 ([1]; Lung): 27.4 h | Elimination kinetics Ke ([1]; Maw): 0.53 | Elimination kinetics t1/2 ([1]; Maw): 31.4 h | Elimination kinetics Ke ([1]; Muscle): 0.23 | Concentrations of total residues ([1]; Muscle, time 0.25, 5 mg/kg b.w. 7 days): 1.10 ± 0.44 mg/kg | Concentrations of total residues ([1]; Muscle, time 1, 5 mg/kg b.w. 7 days): 0.23 ± 0.10 mg/kg | Elimination kinetics Ke ([1]; Muscular stomach): 0.46 | Elimination kinetics t1/2 ([1]; Muscular stomach): 36.5 h | Concentrations of total residues ([1]; Muscular stomach, time 0.25, 5 mg/kg b.w. 7 days): 1.92 ± 0.57 mg/kg | Concentrations of total residues ([1]; Muscular stomach, time 1, 5 mg/kg b.w. 7 days): 0.69 ± 0.10 mg/kg | Concentrations of total residues ([1]; Muscular stomach, time 3, 5 mg/kg b.w. 7 days): 0.25 ± 0.03 mg/kg | Concentrations of total residues ([1]; Muscular stomach, time 7, 5 mg/kg b.w. 7 days): 0.04 ± 0.01 mg/kg | Elimination kinetics Ke ([1]; Pancreas): 0.57 | Elimination kinetics t1/2 ([1]; Pancreas): 29 h | Elimination kinetics Ke ([1]; Skin): 0.43 | Elimination kinetics t1/2 ([1]; Skin): 38.6 h | Concentrations of total residues ([1]; Skin, time 0.25, 5 mg/kg b.w. 7 days): 1.78 ± 0.42 mg/kg | Concentrations of total residues ([1]; Skin, time 1, 5 mg/kg b.w. 7 days): 0.74 ± 0.11 mg/kg | Concentrations of total residues ([1]; Skin, time 3, 5 mg/kg b.w. 7 days): 0.25 ± 0.02 mg/kg | Concentrations of total residues ([1]; Skin, time 7, 5 mg/kg b.w. 7 days): 0.05 ± 0.01 mg/kg | Elimination kinetics Ke ([1]; Small Intestine): 0.75 | Elimination kinetics t1/2 ([1]; Small Intestine): 22.1 h | Concentrations of total residues ([1]; Small Intestine, time 0.25, 5 mg/kg b.w. 7 days): 8.23 ± 0.93 mg/kg | Concentrations of total residues ([1]; Small Intestine, time 1, 5 mg/kg b.w. 7 days): 4.06 ± 1.32 mg/kg | Concentrations of total residues ([1]; Small Intestine, time 3, 5 mg/kg b.w. 7 days): 0.29 ± 0.04 mg/kg | Concentrations of total residues ([1]; Small Intestine, time 7, 5 mg/kg b.w. 7 days): 0.04 ± 0.00 mg/kg | Elimination kinetics Ke ([1]; Spleen): 0.26 | Elimination kinetics t1/2 ([1]; Spleen): 63.1 h | Ke of total residues ([2]; swine Adrenal): 0.28 | Ke of total residues ([2]; swine Bile): 0.71 | Ke of total residues ([2]; swine Bladder): 0.50 | Ke of total residues ([2]; swine Blood): 0.48 | Ke of total residues ([2]; swine Clothing hair): 0.17 | Ke of total residues ([2]; swine Fat): 0.20 | Ke of total residues ([2]; swine Heart): 0.29 | Ke of total residues ([2]; swine Kidney): 0.21 | Ke of total residues ([2]; swine Large Intestine): 0.47 | Ke of total residues ([2]; swine Liver): 0.16 | Ke of total residues ([2]; swine Lung): 0.28 | Ke of total residues ([2]; swine Lymph): 0.46 | Ke of total residues ([2]; swine Muscle): 0.41 | Ke of total residues ([2]; swine Pancreas): 0.27 | Ke of total residues ([2]; swine Skin): 0.42 | Ke of total residues ([2]; swine Small Intestine): 0.54 | Ke of total residues ([2]; swine Spleen): 0.20 | Ke of total residues ([2]; swine Stomach): 0.52 | Ke of total residues ([2]; swine Thymus): 0.37
